Experimental data published in US6011058A, “Seco-cholestane derivatives and methods of making the same” (Georgia Tech Research Corporation, priority 1998, dated 2000).
Values after ≈ are worked out from the molar mass of the structure shown. “Also recorded” adds a separate entry of the source. Like-named read-outs stand apart in the source and are kept apart here. One block for each compound: values may come before it.

Key:
[1] = target: T1, glutathione S-transferase (GST) fusion protein containing the full length sequence for human cdc25A (Homo sapiens, UniProt P30304); experiment: Inhibition of CDC25A phosphatase (fluorescein diphosphate substrate); format: biochemical; details: for IC50: 10 mM dithiothreitol, fluorescein diphosphate substrate, read-out: Approximate IC50 (concentration yielding 50% inhibition of cdc25A) (converted); for relative potency against CDC25A, vs the double bond unsaturated compounds in the series: compared with double bond unsaturated compound in this series
T1 construct: made in house; host or cells: Escherichia coli
T1 sequence (P30304 1-524): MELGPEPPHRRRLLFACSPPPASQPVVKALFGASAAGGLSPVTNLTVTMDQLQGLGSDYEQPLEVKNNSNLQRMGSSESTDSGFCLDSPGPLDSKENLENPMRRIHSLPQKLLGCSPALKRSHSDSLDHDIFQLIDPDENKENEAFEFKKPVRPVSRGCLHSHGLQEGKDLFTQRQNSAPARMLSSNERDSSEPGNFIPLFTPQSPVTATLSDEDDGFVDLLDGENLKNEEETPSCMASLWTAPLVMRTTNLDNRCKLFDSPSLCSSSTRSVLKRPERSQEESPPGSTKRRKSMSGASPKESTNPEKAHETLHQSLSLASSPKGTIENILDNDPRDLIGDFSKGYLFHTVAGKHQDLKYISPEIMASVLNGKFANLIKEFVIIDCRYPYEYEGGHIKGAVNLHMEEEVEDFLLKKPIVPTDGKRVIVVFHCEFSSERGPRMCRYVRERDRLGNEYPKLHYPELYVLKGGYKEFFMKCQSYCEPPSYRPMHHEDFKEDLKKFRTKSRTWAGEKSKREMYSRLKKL
From the text: Rice, R. L. et al., A targeted Library of Small-Molecule, Tyrosine, and Dual-Specificity Phosphatase Inhibitors Derived from a Rational Core Design and Random Side Chain Variation, Biochemistry, 1997, 36, 15965-15974. Briefly, the target enzyme for the assay was a glutathione S-transferase (GST) fusion protein containing the full length sequence for human cdc25A. The enzyme was expressed in Escherichia coli and purified by affinity chromatography over glutathione-agarose. Enzyme activity was measured under linear reaction conditions with fluorescein diphosphate as the substrate. Reactions were performed in the presence of 10 mM dithiothreitol to eliminate oxidant-type inhibitors from scoring as hits in this assay.

[2] = test system: HT-29 human colon cancer cells; experiment: Inhibition of HT-29 colon carcinoma cell growth, soft agarose colony-forming assay; format: cell-based; details: HT-29, 168 h, continuous drug exposure over 7 days, read-out: IC50, proliferation of HT-29 colon cancer cells
Procedure: (§1) HT-29 human colon cancer cells and A549 human lung adenocarcinoma cells were purchased from the American Tissue Type Collection (Rockville, Md.). The cell were maintained in Dulbecco's modified Eagle's media (DMEM) containing 10% fetal bovine serum and harvested with 0.05% trypsin and 0.5 mM EDTA before becoming confluent.
Compounds 6 and 8 prepared as discussed in the preceding examples were also evaluated for potency as inhibitors of colon cancer cell lines (HT-29). Inhibition of HT-29 colon carcinoma cell growth by compounds 6 and 8 was measured in the soft agarose colony-forming assay with continuous drug exposure over 7 days as previously described. Alley M. C. et al., Activation and inactivation of cancer chemotherapeutic agents by rat heptocytes cocultured with human tumor cell lines, Cancer Res 44:549 (1984). Briefly, soft-agarose culture was performed in 35-mm culture dishes contained a base layer consisting of 0.5 ml of standard culture medium with 0.5% agarose. […] Cell lines forming a sufficient number of detectable colonies were analyzed following 7 days of incubation. Viable colonies were stained using metabolizable tetrazolium salt, and analyzed as described previously. […]

[3] = test system: A549 human lung adenocarcinoma cells; experiment: Clonogenic assay, inhibition of growth of lung adenocarcinoma (A549) cells; format: cell-based
Procedure: as §1
Compound 6 prepared as discussed in the preceding examples were also evaluated for potency as inhibitors of the growth of lung adenocarcinoma cell lines. The effect of compound 6 was assessed with a clonogenic assay. In brief, A549 cells in log-phase growth were harvested, resuspended in fresh growth media and plated in triplicate in 60 mm dishes at cell concentrations estimated to yield 20-100 colonies per dish following treatment. Four hours after plating, cells were either exposed to compound 6 for one day followed by a wash and culture in fresh medium for 11 days (dotted line), or continuously exposed to this compound for 12 days (solid line). Cells were fixed and stained with Coomassie Blue at the end of the 12th day. Colonies with greater than 50 cells were scored.

Compound: 3-actoxy-5, 6-seco-5-oxo-pregnen-6-oic acid [reference compound]
inhibitory activity against CDC25A phosphatase ([1]; negative control): no inhibitory activity; also recorded: lost its activity

Compound: C=C(CC/C=C\C#N)[C@H]1CC[C@]2(C)[C@@H]([C@H](C)CCCC(C)C)CC[C@H]2[C@@H]1CC(=O)O [Compound 8]
IC50 [1]: 10.6 µM | IC50 [2]: 4.8 µg/mL (≈ 11.6 µM)

Compound: CC(C)CCC[C@@H](C)[C@H]1CC[C@H]2[C@@H]3CC(=O)O[C@](C)(CC/C=C\C#N)[C@H]3CC[C@]12C [Compound 6]
IC50 [1]: 14.5 µM | IC50 [2]: 5 µg/mL (≈ 12.1 µM) | IC50 ([3]; A549, 288 h, 12-day continuous exposure, read-out: concentration reducing number of A549 colonies per dish 50%): 7 µM | IC50 ([3]; A549, one day exposure, wash, then fresh medium for 11 days, read-out: concentration giving 50% reduction of the tumor cell colony number per dish): 37 µM

Compound: CC(C)CCC[C@@H](C)[C@H]1CC[C@H]2[C@@H]3CC(=O)O[C@@](C)(CC/C=C\C#N)[C@H]3CC[C@]12C [Compound 7]
IC50 [1]: > 121 µM | relative activity against CDC25A, vs 10R isomer compound 6 ([1]; 10S vs 10R isomer, compound 6): much less active

Further lines, results first:

IC50 [1]: > 24.2 µM
Compound: C/C(=C/C/C=C\C#N)[C@H]1CC[C@]2(C)[C@@H]([C@H](C)CCCC(C)C)CC[C@H]2[C@@H]1CC(=O)O [Compound 9]

IC50 [1]: 2.17 µM | relative potency against CDC25A, vs the double bond unsaturated compounds in the series [1]: much more potent
Compound: CC(C)CCC[C@@H](C)[C@H]1CC[C@H]2[C@@H]3CC(=O)O[C@](C)(CCCCC#N)[C@H]3CC[C@]12C [Compound 15]

IC50 [1]: 2.17 µM | relative potency against CDC25A, vs the double bond unsaturated compounds in the series [1]: much more potent
Compound: C=C(CCCCC#N)[C@H]1CC[C@]2(C)[C@@H]([C@H](C)CCCC(C)C)CC[C@H]2[C@@H]1CC(=O)O [Compound 13]

IC50 [1]: 24.2 µM
Compound: C/C(=C\C/C=C\C#N)[C@H]1CC[C@]2(C)[C@@H]([C@H](C)CCCC(C)C)CC[C@H]2[C@@H]1CC(=O)O [Compound 10]
